Measured values: patent publication US20080139388A1, “Synergistic Insecticide Mixtures” (priority 2004, published 2008)

How the values were obtained:
Myzus persicae = Myzus persicae test (cabbage leaf dip); assay type: in vivo
Text: (§1) Formula for the calculation of the kill rate of a combination of two active compounds
(§2) The expected activity for a given combination of two active compounds can be calculated (cf. COLBY, S. R.; “Calculating Synergistic and Antagonistic Responses of Herbicide Combinations”, Weeds 15, pages 20-22, 1967):
(§3) if • X=the kill rate, expressed in % of the untreated control, when employing active compound A at an application rate of m ppm, • Y=the kill rate, expressed in % of the untreated control, when employing active compound B at an application rate of n ppm, • E=the kill rate, expressed in % of the untreated control, when employing active compounds A and B at application rates of m and n ppm, then
(§4) If the actual insecticidal kill rate is higher than the calculated one, the kill rates of the combination are superadditive, i.e. a synergistic effect is present. In this case, the kill rate that is actually observed has to be higher than the value, calculated using the formula above, for the expected kill rate (E).
Solvent: 7 parts by weight of dimethylformamide Emulsifier: 2 parts by weight of alkylaryl polyglycol ether
To produce a suitable preparation of active compound, 1 part by weight of active compound is mixed with the stated amounts of solvent and emulsifier, and the concentrate is diluted with emulsifier-containing water to the desired concentration.
Cabbage leaves (Brassica oleracea) which are heavily infested by the green peach aphid (Myzus persicae) are treated by being dipped into the preparation of active compound of the desired concentration.
After the desired period of time, the kill in % is determined. 100% means that all aphids have been killed; 0% means that none of the aphids have been killed. The determined kill rates are entered into Colby's formula.

[1] = test system: Plutella xylostella (normally sensitive strain); assay: Plutella xylostella test, normally sensitive strain (cabbage leaf dip); assay type: in vivo; details: 20 ppm
Text: as §1, §2, §3, §4
To produce a suitable preparation of active compound, 1 part by weight of active compound is mixed with the stated amounts of solvent and emulsifier, and the concentrate is diluted with emulsifier-containing water to the desired concentration. […]
After the desired period of time, the kill in % is determined. […] The determined kill rates are entered into Colby's formula (see sheet 1).

Question: With `C/C(=N\C#N)N(C)Cc1ccc(Cl)nc1` [acetamiprid] as the compound, how does the “Kill in % after 6 days” value (Myzus persicae; 0.16 ppm) read?
Answer: 30%

Question: How did the “Kill in % after 1 day” value (Myzus persicae; 0.16 ppm, after 1 day (Table A2)) turn out when `CN/C(=N\[N+](=O)[O-])NCc1cnc(Cl)s1` [clothianidin] was run?
Answer: 0%

Question: For `CNC(=O)Oc1cc(C)c(SC)c(C)c1` [methiocarb, 3,5-dimethyl-4-(methylthio)phenyl methylcarbamate], which “Kill in % after 1 day” value (Myzus persicae; 20 ppm, after 1 day (Table A2)) is on record?
Answer: 5%

Question: And the “Kill in % after 1 day” value (Myzus persicae; 20 ppm, after 1 day (Table A3))?
Answer: 5%

Question: What about the “Kill in % after 6 days” value (Myzus persicae; 100 ppm) of the same compound?
Answer: 50%

Question: What about the “Kill in % after 3 days” value [1] of the same compound?
Answer: 0%

Question: With `N#C/N=C1\SCCN1Cc1ccc(Cl)nc1` [thiacloprid] as the compound, how does the “Kill in % after 1 day” value (Myzus persicae; 0.8 ppm, after 1 day (Table A3)) read?
Answer: 20%

Question: What about the “Kill in % after 3 days” value [1] of the same compound?
Answer: 0%
